The source made the active and inactive calls. No cut-off for these calls is given here.
Key:
[1] = biological target: T1, Interstitial collagenase (Homo sapiens) (UniProt P03956); assay: Inhibition of MMP-1 (unknown origin) using FRET substrate preincubated for 5 mins followed by substrate addition and measured after 30 mins by fluorescence assay; settings: dose 25-100 µM, time 35.0 min, DDE = dose-dependent effect
T1 sequence (whole entry): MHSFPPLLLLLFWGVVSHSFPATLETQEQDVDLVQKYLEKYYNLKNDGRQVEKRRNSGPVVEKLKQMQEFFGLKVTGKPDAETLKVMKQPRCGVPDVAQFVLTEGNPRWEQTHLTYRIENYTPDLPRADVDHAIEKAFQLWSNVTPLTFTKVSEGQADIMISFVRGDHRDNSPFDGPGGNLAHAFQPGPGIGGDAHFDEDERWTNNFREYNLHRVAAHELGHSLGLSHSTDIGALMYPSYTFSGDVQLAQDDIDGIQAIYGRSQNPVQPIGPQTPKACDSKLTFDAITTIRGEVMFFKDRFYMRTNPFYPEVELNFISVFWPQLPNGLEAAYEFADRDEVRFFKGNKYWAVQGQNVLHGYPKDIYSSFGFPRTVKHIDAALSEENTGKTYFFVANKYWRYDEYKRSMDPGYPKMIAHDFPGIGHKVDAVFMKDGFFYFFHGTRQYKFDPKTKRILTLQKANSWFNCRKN

[2] = biological target: T1, Interstitial collagenase (Homo sapiens); assay: (§1) Binding affinity to human MMP-1 catalytic domain (100 to 269 residues) expressed in Escherichia coli BL21 Star (DE3) by SPR analysis; settings: DDE = dose-dependent effect
[3] = biological target: Heat shock cognate 71 kDa protein (Mus musculus) (UniProt P63017); assay: Binding affinity to HSP73 in mouse B16-F10 cell lysate by pull down assay; format: subcellular
[4] = biological target: T1, Interstitial collagenase (Homo sapiens); assay: Binding affinity to human 15N-labelled MMP-1 catalytic domain (100 to 269 residues) expressed in Escherichia coli BL21 Star (DE3) assessed as chemical shift perturbation at E99 residue at 500 uM by 1H-15N HSQC spectra analysis
[5] = biological target: Actin, cytoplasmic 1 (Mus musculus) (UniProt P60710); assay: Binding affinity to beta-actin in mouse B16-F10 cell lysate by Western blot analysis; format: subcellular
[6] = biological target: Actin, cytoplasmic 1 (Mus musculus) (UniProt P60710); assay: Binding affinity to beta-actin in mouse B16-F10 cell lysate by pull down assay; format: subcellular
B16-F10 [7] = assay: Binding affinity to MMP-1 in mouse B16-F10 cell lysate by pull down assay; format: subcellular
B16-F10 [8] = assay: Binding affinity to MMP-1 in mouse B16-F10 cell lysate by Western blot analysis; format: subcellular
[9] = biological target: Heat shock cognate 71 kDa protein (Mus musculus) (UniProt P63017); assay: Binding affinity to HSP73 in mouse B16-F10 cell lysate by Western blot analysis; format: subcellular
[10] = biological target: T1, Interstitial collagenase (Homo sapiens); assay: Binding affinity to human 15N-labelled MMP-1 catalytic domain (100 to 269 residues) expressed in Escherichia coli BL21 Star (DE3) assessed as chemical shift perturbation at F97 residue at 500 uM by 1H-15N HSQC spectra analysis
[11] = biological target: Mitogen-activated protein kinase kinase kinase 11 (Mus musculus) (UniProt Q80XI6); assay: Binding affinity to MLK3 in mouse B16-F10 cell lysate by pull down assay; format: subcellular
Interstitial collagenase = biological target: T2, Interstitial collagenase (Homo sapiens, UniProt P03956); assay: as §1
T2 sequence (P03956 whole entry): T1 sequence (whole entry)

Sequence of Heat shock cognate 71 kDa protein (Mus musculus) (P63017 whole entry, the tested form may be a part): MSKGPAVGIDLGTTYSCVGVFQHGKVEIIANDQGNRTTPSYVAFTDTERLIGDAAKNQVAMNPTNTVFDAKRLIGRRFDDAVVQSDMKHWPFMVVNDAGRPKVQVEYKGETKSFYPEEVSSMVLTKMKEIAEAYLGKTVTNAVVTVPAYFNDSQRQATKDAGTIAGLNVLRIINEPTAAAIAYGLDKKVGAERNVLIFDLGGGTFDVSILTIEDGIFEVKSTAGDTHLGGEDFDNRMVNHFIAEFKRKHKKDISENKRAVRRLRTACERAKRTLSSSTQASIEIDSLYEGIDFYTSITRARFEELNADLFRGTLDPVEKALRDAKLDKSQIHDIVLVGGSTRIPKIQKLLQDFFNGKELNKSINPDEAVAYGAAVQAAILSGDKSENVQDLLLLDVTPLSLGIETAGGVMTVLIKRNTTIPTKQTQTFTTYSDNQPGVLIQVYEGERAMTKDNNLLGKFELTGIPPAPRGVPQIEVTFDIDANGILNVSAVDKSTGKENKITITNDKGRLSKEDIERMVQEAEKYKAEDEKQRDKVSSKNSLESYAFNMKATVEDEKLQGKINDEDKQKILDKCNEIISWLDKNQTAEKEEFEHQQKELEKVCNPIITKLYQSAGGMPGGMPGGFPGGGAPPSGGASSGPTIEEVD
Sequence of Mitogen-activated protein kinase kinase kinase 11 (Mus musculus) (Q80XI6 whole entry, looked up): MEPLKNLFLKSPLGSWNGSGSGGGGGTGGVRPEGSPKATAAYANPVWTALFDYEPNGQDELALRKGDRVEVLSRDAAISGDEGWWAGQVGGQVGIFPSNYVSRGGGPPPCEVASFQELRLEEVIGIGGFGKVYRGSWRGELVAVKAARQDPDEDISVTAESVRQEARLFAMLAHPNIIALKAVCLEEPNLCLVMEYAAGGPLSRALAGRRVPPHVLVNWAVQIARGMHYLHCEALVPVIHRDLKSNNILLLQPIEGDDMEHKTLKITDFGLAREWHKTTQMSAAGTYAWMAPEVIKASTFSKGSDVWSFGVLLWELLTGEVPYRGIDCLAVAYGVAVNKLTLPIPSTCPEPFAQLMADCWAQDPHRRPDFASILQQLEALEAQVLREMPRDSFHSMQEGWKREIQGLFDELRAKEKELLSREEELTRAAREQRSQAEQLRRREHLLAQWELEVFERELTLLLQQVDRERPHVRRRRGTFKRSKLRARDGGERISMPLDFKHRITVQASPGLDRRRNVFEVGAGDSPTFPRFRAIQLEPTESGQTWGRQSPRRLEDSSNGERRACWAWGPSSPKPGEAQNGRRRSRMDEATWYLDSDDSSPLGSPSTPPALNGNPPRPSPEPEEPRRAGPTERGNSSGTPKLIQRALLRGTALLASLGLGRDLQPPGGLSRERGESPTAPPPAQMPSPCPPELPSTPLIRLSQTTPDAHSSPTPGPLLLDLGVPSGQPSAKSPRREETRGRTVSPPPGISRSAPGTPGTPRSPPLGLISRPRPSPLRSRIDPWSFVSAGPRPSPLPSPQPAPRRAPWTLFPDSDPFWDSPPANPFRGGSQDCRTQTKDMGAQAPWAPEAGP

Structure (SMILES): O=c1c(O)c(-c2ccc(O)c(O)c2)oc2cc(O)cc(O)c12
- inhibition [1]: Dde
- Activity [2]: Dde

Structure (SMILES): COc1c(-c2ccc(O)c(O)c2)oc2cc(O)cc(O)c2c1=O [3-O-METHYLQUERCETIN]
- Activity [3]: Active
- Activity [4]: > 0.03 ppm
- Activity [5]: Active
- Activity [6]: Active
- Activity (B16-F10 [7]): Active
- Activity (B16-F10 [8]): Active
- Activity [9]: Active
- Activity [10]: 0.05 ppm
- inhibition [1]: Dde
- Activity [11]: Active
- Activity [2]: Dde
- Kd (Interstitial collagenase): 21.7 µM

Source: ChEMBL document CHEMBL5126590 (Bioorg Med Chem, 2022)
